Source: US10399988B2, “4-aminopyrazolo[3,4-d]pyrimidinylazabicyclo derivatives and pharmaceutical composition comprising the same” (Daewoong Pharmaceutical Co., Ltd., priority 2016, dated 2019)

Molecular target: BTK (Homo sapiens, UniProt Q06187)
Assay: Inhibitory activity against BTK (ADP-Glo + BTK Kinase enzyme system kit)

Chain of BTK (Q06187 whole entry): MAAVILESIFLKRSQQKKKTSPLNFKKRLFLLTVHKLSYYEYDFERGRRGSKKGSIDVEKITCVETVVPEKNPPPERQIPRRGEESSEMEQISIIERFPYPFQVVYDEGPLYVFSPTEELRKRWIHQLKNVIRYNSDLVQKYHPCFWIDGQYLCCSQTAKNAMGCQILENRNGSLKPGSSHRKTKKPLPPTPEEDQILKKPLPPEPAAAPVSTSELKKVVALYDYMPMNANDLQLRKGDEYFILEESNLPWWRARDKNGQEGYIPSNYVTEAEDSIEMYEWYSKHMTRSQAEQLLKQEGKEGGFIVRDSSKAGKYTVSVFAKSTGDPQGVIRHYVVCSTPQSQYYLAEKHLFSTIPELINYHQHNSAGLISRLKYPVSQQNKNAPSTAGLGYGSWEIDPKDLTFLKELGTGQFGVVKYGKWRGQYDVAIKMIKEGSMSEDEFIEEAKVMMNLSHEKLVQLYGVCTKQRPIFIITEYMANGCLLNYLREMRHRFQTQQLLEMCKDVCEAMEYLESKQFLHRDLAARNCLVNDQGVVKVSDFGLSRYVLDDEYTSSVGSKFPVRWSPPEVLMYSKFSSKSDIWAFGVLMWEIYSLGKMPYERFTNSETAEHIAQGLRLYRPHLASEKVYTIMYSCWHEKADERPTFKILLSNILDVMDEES

| SMILES | IC50 |
| --- | --- |
| CC#CC(=O)N1CC2CC1C(n1nc(-c3ccc(Oc4ccccc4)cc3)c3c(N)ncnc31)C2 (centres unmarked) [Ex. 5, 1-(6-(4-amino-3-(4-phenoxyphenyl)-1H-pyrazolo[3,4-d]pyrimidin-1-yl)-2-azabicyclo[2.2.1]heptan-2-yl)but-2-yn-1-one] | 27.6 nM |
| C#CC(=O)N1CC2CC1C(n1nc(-c3ccc(C(=O)Nc4cc(C(F)(F)F)ccn4)cc3)c3c(N)ncnc31)C2 (centres unmarked) [Ex. 6, 4-(4-amino-1-(2-propioloyl-2-azabicyclo[2.2.1]heptan-6-yl)-1H-pyrazolo[3,4-d]pyrimidin-3-yl)-N-(4-(trifluoromethyl)pyridin-2-yl)benzamide] | 22.7 nM |
| C#CC(=O)N1CC2CC1C(n1nc(-c3cccc(C(=O)Nc4ccc(C(C)C)cc4)c3)c3c(N)ncnc31)C2 (centres unmarked) [Ex. 7, 3-(4-amino-1-(2-propioloyl-2-azabicyclo[2.2.1]heptan-6-yl)-1H-pyrazolo[3,4-d]pyrimidin-3-yl)-N-(4-isopropylphenyl)benzamide] | 31.6 nM |
| C#CC(=O)N1CC2CC1C(n1nc(-c3cccc(C(=O)Nc4ccc(C(C)C)c(C)c4)c3)c3c(N)ncnc31)C2 (centres unmarked) [Ex. 9, 3-(4-amino-1-(2-propioloyl-2-azabicyclo[2.2.1]heptan-6-yl)-1H-pyrazolo[3,4-d]pyrimidin-3-yl)-N-(4-isopropyl-3-methylphenyl)benzamide] | 53.8 nM |
| C#CC(=O)N1CC2CC1CC2n1nc(-c2ccc(Oc3ccccc3)cc2)c2c(N)ncnc21 (centres unmarked) [Ex. 11, 1-(5-(4-amino-3-(4-phenoxyphenyl)-1H-pyrazolo[3,4-d]pyrimidin-1-yl)-2-azabicyclo[2.2.1]heptan-2-yl)prop-2-yn-1-one] | 2.8 nM |
| C#CC(=O)N1C[C@@H]2C[C@H]1C[C@H]2n1nc(-c2ccc(Oc3ccccc3)cc2)c2c(N)ncnc21 [Ex. 13, 1-((1S,4S,5R)-5-(4-amino-3-(4-phenoxyphenyl)-1H-pyrazolo[3,4-d]pyrimidin-1-yl)-2-azabicyclo[2.2.1]heptan-2-yl)prop-2-yn-1-one] | 2 nM |
| CCC#CC(=O)N1CC2CC1C(n1nc(-c3ccc(Oc4ccccc4)cc3)c3c(N)ncnc31)C2 (centres unmarked) [Ex. 16, 1-(6-(4-amino-3-(4-phenoxyphenyl)-1H-pyrazolo[3,4-d]pyrimidin-1-yl)-2-azabicyclo[2.2.1]heptan-2-yl)pent-2-yn-1-one] | > 1000 nM |
| C=CC(=O)N1CC2CC1CC2n1nc(-c2cccc(Oc3ccccc3)c2)c2c(N)ncnc21 (centres unmarked) [Ex. 25, 1-(5-(4-amino-3-(3-phenoxyphenyl)-1H-pyrazolo[3,4-d]pyrimidin-1-yl)-2-azabicyclo[2.2.1]heptan-2-yl)prop-2-en-1-one] | 72.3 nM |
| C=CC(=O)N1CC2CC1C(n1nc(-c3ccc(COC)cc3)c3c(N)ncnc31)C2 (centres unmarked) [Ex. 27, 1-(6-(4-amino-3-(4-(methoxymethyl)phenyl)-1H-pyrazolo[3,4-d]pyrimidin-1-yl)-2-azabicyclo[2.2.1]heptan-2-yl)prop-2-en-1-one] | 29.6 nM |
| Nc1ncnc2c1c(-c1ccc(Oc3ccccc3)cc1)nn2C1CC2CC1N(C(=O)C#CC1CC1)C2 (centres unmarked) [Ex. 28, 1-(6-(4-amino-3-(4-phenoxyphenyl)-1H-pyrazolo[3,4-d]pyrimidin-1-yl)-2-azabicyclo[2.2.1]heptan-2-yl)-3-cyclopropylprop-2-yn-1-one] | 25.2 nM |

Second part, the compound after the results:

| IC50 | SMILES |
| --- | --- |
| 202 nM | C/C=C/C(=O)N1CC2CC1C(n1nc(-c3ccc(Oc4ccccc4)cc3)c3c(N)ncnc31)C2 (centres unmarked) [Ex. 3, (E)-1-(6-(4-amino-3-(4-phenoxyphenyl)-1H-pyrazolo[3,4-d]pyrimidin-1-yl)-2-azabicyclo[2.2.1]heptan-2-yl)but-2-en-1-one] |
| 139 nM | C=CC(=O)N1CC2CC1C(n1nc(-c3cccc(C(=O)Nc4ccc(C(C)C)cc4)c3)c3c(N)ncnc31)C2 (centres unmarked) [Ex. 8, 3-(1-(2-acryloyl-2-azabicyclo[2.2.1]heptan-6-yl)-4-amino-1H-pyrazolo[3,4-d]pyrimidin-3-yl)-N-(4-isopropylphenyl)benzamide] |
| 88 nM | C=CC(=O)N1CC2CC1C(n1nc(-c3cccc(C(=O)Nc4ccc(C(C)C)c(C)c4)c3)c3c(N)ncnc31)C2 (centres unmarked) [Ex. 10, 3-(1-(2-acryloyl-2-azabicyclo[2.2.1]heptan-6-yl)-4-amino-1H-pyrazolo[3,4-d]pyrimidin-3-yl)-N-(4-isopropyl-3-methylphenyl)benzamide] |
| 6.9 nM | C#CC(=O)N1CC2CC1C(n1nc(-c3cccc(C(=O)Nc4ccccc4)c3)c3c(N)ncnc31)C2 (centres unmarked) [Ex. 18, 3-(4-amino-1-(2-propioloyl-2-azabicyclo[2.2.1]heptan-6-yl)-1H-pyrazolo[3,4-d]pyrimidin-3-yl)-N-phenylbenzamide] |
| 10.8 nM | C=CC(=O)N1CC2CC1C(n1nc(-c3ccc(C(=O)Nc4ccccc4)cc3)c3c(N)ncnc31)C2 (centres unmarked) [Ex. 19, 4-(1-(2-acryloyl-2-azabicyclo[2.2.1]heptan-6-yl)-4-amino-1H-pyrazolo[3,4-d]pyrimidin-3-yl)-N-phenylbenzamide] |
| > 1000 nM | CC#CC(=O)N1CC2CC1C(n1nc(-c3ccc(C(=O)Nc4ccccc4)cc3)c3c(N)ncnc31)C2 (centres unmarked) [Ex. 20, 4-(4-amino-1-(2-(but-2-ynoyl)-2-azabicyclo[2.2.1]heptan-6-yl)-1H-pyrazolo[3,4-d]pyrimidin-3-yl)-N-phenylbenzamide] |
| 63 nM | C=CC(=O)N1CC2CC1C(n1nc(-c3cccc(C(=O)Nc4ccccc4)c3)c3c(N)ncnc31)C2 (centres unmarked) [Ex. 21, 3-(1-(2-acryloyl-2-azabicyclo[2.2.1]heptan-6-yl)-4-amino-1H-pyrazolo[3,4-d]pyrimidin-3-yl)-N-phenylbenzamide] |
| > 1000 nM | CC#CC(=O)N1CC2CC1C(n1nc(-c3cccc(C(=O)Nc4ccccc4)c3)c3c(N)ncnc31)C2 (centres unmarked) [Ex. 22, 3-(4-amino-1-(2-but-2-ynoyl-2-azabicyclo[2.2.1]heptan-6-yl)-1H-pyrazolo[3,4-d]pyrimidin-3-yl)-N-phenylbenzamide] |
| 78.8 nM | C=CC(=O)N1CC2CC1CC2n1nc(-c2ccc(C(=O)Nc3ccccc3)cc2)c2c(N)ncnc21 (centres unmarked) [Ex. 23, 4-(1-(2-acryloyl-2-azabicyclo[2.2.1]heptan-5-yl)-4-amino-1H-pyrazolo[3,4-d]pyrimidin-3-yl)-N-phenylbenzamide] |
| 560 nM | C=CC(=O)N1CC2CC1CC2n1nc(-c2cccc(C(=O)Nc3ccccc3)c2)c2c(N)ncnc21 (centres unmarked) [Ex. 24, 3-(1-(2-acryloyl-2-azabicyclo[2.2.1]heptan-5-yl)-4-amino-1H-pyrazolo[3,4-d]pyrimidin-3-yl)-N-phenylbenzamide] |
| 295 nM | C=CC(=O)N1CC2CC1C(n1nc(-c3cccc(C(=O)Nc4ccc(C(F)(F)F)nc4)c3)c3c(N)ncnc31)C2 (centres unmarked) [Ex. 26, 3-(1-(2-acryloyl-2-azabicyclo[2.2.1]heptan-6-yl)-4-amino-1H-pyrazolo[3,4-d]pyrimidin-3-yl)-N-(6-(trifluoromethyl)pyridin-3-yl)benzamide] |
| 16.9 nM | C=CC(=O)N1CC2CC1C(n1nc(-c3ccc(C(=O)Nc4cc(C(F)(F)F)ccn4)cc3)c3c(N)ncnc31)C2 (centres unmarked) [Ex. 29, 4-(1-(2-acryloyl-2-azabicyclo[2.2.1]heptan-6-yl)-4-amino-1H-pyrazolo[3,4-d]pyrimidin-3-yl)-N-(4-(trifluoromethyl)pyridin-2-yl)benzamide] |
| > 1000 nM | C#CC(=O)N1CC2CC1C(n1nc(-c3ccc(-c4ccccc4)cc3)c3c(N)ncnc31)C2 (centres unmarked) [Ex. 30, 1-(6-(4-amino-3-(biphenyl-4-yl)-1H-pyrazolo[3,4-d]pyrimidin-1-yl)-2-azabicyclo[2.2.1]heptan-2-yl)prop-2-yn-1-one] |
